Measurements: article PMC12467033, “Exploring the Inhibitory Potential of Six Porphyrin Compounds Against α-Amylase and α-Glucosidase Linked to Diabetes” (Biomolecules, 2025)

Tests used:
[1] = biological target: T1, α-amylase (Sus scrofa, UniProt P00690); assay: Mode of α-AMY inhibition (reversibility, Lineweaver–Burk kinetics); format: biochemical
T1 sequence (P00690 16-511): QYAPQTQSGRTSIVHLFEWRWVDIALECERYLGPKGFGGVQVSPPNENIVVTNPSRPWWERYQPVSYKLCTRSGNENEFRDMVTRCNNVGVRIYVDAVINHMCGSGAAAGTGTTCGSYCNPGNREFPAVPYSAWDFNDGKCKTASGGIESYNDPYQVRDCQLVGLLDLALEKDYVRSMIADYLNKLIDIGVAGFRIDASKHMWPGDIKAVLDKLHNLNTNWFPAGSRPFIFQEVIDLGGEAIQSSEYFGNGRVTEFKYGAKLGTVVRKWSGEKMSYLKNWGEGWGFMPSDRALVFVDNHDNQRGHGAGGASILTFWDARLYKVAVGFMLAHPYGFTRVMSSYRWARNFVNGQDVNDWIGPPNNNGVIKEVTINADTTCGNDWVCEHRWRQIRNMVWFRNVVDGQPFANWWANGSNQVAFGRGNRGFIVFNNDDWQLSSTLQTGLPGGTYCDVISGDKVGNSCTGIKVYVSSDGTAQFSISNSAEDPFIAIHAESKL
Text: In the experiment, the concentration of the fixed substrate Gal-G2-α-CNP/pNPG solution was 5 mmol/L, and the concentrations of the two enzymes (100, 200, 300, 400 U/L) were used to determine the effect of different concentrations of porphyrins on enzyme activity. The concentration of the enzyme was 200 U/L, and the concentration of the substrate Gal-G2-α-CNP/pNPG solution (2.5, 5, 7.5, 10 mmol/L) was used to determine the effect of different concentrations of porphyrins on the enzyme-catalyzed substrate activity.
Upon identifying the type of inhibition, the kinetic equations vary for different inhibition types.
In the formula, v, Vmax, Km, Ki, and Kis represent the reaction rate, maximum reaction rate, Michaelis constant, and free enzyme inhibition constant, respectively, and the binding enzyme inhibition constant. [S] denotes the substrate concentration. [I] denotes the inhibitor concentration.

[2] = biological target: T1, α-amylase; assay: Fluorescence quenching, binding and thermodynamics with α-amylase
Text: In the α-amylase experiment, a series of porphyrins and amylase (200 U/L) were mixed in a volume ratio of 1:1.
(§1) The Stern–Volmer equation [35] was adopted to determine the quenching mechanisms between six porphyrin compounds and both enzymes in the experimental group, with Formula (6):(6) F0/F=1+Ksv[Q]=1+Kqτ0[Q]
(§2) The Stern–Volmer equation was adapted based on experimental data to more accurately characterize the quenching behavior [36], with Formula (7):(7) F0/F=e^Ksv[Q]=e^Kqτ0[Q]
(§3) In the formula, the fluorescence quenching ratio was calculated as F0/F, where F0 corresponds to the emission intensity of pure α-amylase solution (control) and F denotes the intensity measured after the incremental addition of porphyrin ligands. KSV and Kq denote the Stern–Volmer quenching constant and the bimolecular quenching rate constant, respectively, τ0 (10^−8 s) is the average fluorescence lifetime of the fluorophore in the absence of quencher, and [Q] indicates the concentration of porphyrin compounds.
(§4) Due to the presence of an internal filtration effect, a decrease in the fluorescence intensity of the system may occur. Therefore, all fluorescence data were corrected using Formula (8) to eliminate the internal filtration effect.(8) Fcor=Fobse^(Aex+Aem)/2
(§5) The evaluation of the interaction forces between porphyrin compounds and the two enzymes can be achieved by calculating thermodynamic parameters. When both ΔH^0 and ΔS^0 are positive, the predominant interaction force is hydrophobic. When both ΔH^0 and ΔS^0 are negative, the main forces are hydrogen bonding and van der Waals forces. When ΔH^0 < 0 and ΔS^0 > 0, the primary interaction is electrostatic attraction.
(§6) The thermodynamic parameters were calculated using Formulas (9) and (10), and then the Van’t Hoff plot for the interactions between the porphyrin compounds and the two enzymes was generated by plotting lnKa on the Y-axis versus 1/T on the X-axis.(9) lnKa=−ΔH^0/RT+ΔS^0/R (10) ΔG^0=ΔH^0−TΔS^0=−RTlnKa

[3] = biological target: T2, α-glucosidase (Saccharomyces cerevisiae, UniProt P53341); assay: Fluorescence quenching, binding and thermodynamics with α-glucosidase
T2 sequence (P53341 whole entry): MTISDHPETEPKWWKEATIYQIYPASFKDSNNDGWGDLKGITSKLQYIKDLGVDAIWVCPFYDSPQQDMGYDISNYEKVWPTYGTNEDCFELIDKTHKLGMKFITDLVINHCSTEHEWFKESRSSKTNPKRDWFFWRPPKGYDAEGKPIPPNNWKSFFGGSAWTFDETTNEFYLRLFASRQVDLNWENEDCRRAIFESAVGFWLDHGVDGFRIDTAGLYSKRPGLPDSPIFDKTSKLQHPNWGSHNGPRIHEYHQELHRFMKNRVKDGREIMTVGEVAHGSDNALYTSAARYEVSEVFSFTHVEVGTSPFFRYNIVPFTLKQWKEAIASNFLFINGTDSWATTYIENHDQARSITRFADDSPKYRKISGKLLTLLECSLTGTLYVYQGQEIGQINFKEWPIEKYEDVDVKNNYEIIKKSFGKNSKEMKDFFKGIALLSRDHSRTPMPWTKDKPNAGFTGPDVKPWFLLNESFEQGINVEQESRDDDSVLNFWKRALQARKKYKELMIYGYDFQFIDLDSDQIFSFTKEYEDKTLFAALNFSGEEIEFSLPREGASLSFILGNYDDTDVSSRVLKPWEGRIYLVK
Description: In the α-amylase experiment, a series of porphyrins and amylase (200 U/L) were mixed in a volume ratio of 1:1. In the α-glucosidase experiment, the glucosidase concentration was 400 U/L, mixed in a volume ratio of 1:1; the samples were maintained at three different temperatures (298, 304, and 310 K) for 30 min, with excitation at 280 nm and emission scanning from 300 to 500 nm.
as §1, §2, §3, §4, §5, §6

[4] = biological target: T1, α-amylase; assay: FTIR secondary structure analysis of α-AMY complexes; conditions: enzyme–porphyrin molar ratio 1:2, amide I band
Text: (§7) A molar ratio of 1:2 (α-amylase/α-glucosidase)–porphyrin solution was placed in a cryocentrifugal concentrator and the dried solid sample was mixed with dry KBr and measured using a Nicolet IS-50 FTIR Spectrometer (ThermoFisher, Waltham, MA, USA) with a scanning range of 4000–400 cm^−1 and a resolution of 4 cm^−1. The overlapping peaks in the amide I band (1700–1600 cm^−1) were further analyzed into multiple feature sub-peaks, and quantitative analysis of the relative content of various secondary structures in proteins using curve fitting methods was performed.

[5] = biological target: T2, α-glucosidase; assay: FTIR secondary structure analysis of α-GLU complexes; conditions: enzyme–porphyrin molar ratio 1:2, amide I band
Text: as §7

## O=C(O)c1ccc(-c2c3nc(c(-c4ccc(C(=O)O)cc4)c4ccc([nH]4)c(-c4ccc(C(=O)O)cc4)c4nc(c(-c5ccc(C(=O)O)cc5)c5ccc2[nH]5)C=C4)C=C3)cc1.[Ni+2] [Ni–TCPP, nickel (II) meso-tetra (4-carboxyphenyl) porphine]
[1]; C 40 μg/mL
  Km: 3.6229 ± 0.1082 µg/mL
  Vmax: 0.1456 ± 0.0043 ΔOD/min
[1]; C 80 μg/mL
  Km: 3.6134 ± 0.1167 µg/mL
  Vmax: 0.1238 ± 0.0040 ΔOD/min
[1]; C 120 μg/mL
  Km: 3.6072 ± 0.0593 µg/mL
  Vmax: 0.1032 ± 0.0017 ΔOD/min
[1]; C 160 μg/mL
  Km: 3.6027 ± 0.1141 µg/mL
  Vmax: 0.0901 ± 0.0029 ΔOD/min
[1]; C 200 μg/mL
  Km: 3.5987 ± 0.0938 µg/mL
  Vmax: 0.0799 ± 0.0021 ΔOD/min
[1]; Lineweaver–Burk plots
  type of inhibition of α-amylase: non-competitive inhibition
[1]; enzyme 100–400 U/L, substrate 5 mmol/L
  reversibility of inhibition of α-amylase: reversible inhibition
[1]; free enzyme inhibition constant
  Ki: 157.9542 ± 0.1375 µg/mL
[2]; Stern–Volmer plots, 298–310 K
  quenching mechanism of α-amylase fluorescence: pure static quenching
[2]; T 298 K
  Ka (binding constant): 99.31 ± 0.12 ×10^5 L/mol
  Kq: 9.78 ± 0.03 ×10^12 L/mol/s
  Ksv: 9.78 ± 0.03 ×10^4 L/mol
  n (number of binding sites): 1.44
  ΔG^0: -39.92 ± 0.08 kJ/mol
[2]; T 304 K
  Ka (binding constant): 5.75 ± 0.04 ×10^5 L/mol
  Kq: 8.47 ± 0.07 ×10^12 L/mol/s
  Ksv: 8.47 ± 0.07 ×10^4 L/mol
  n (number of binding sites): 1.19
  ΔG^0: -33.52 ± 0.06 kJ/mol
[2]; T 310 K
  Ka (binding constant): 0.61 ± 0.02 ×10^5 L/mol
  Kq: 7.11 ± 0.05 ×10^12 L/mol/s
  Ksv: 7.11 ± 0.05 ×10^4 L/mol
  n (number of binding sites): 0.99
  ΔG^0: -28.39 ± 0.07 kJ/mol
[2]; Van’t Hoff, 298–310 K
  ΔH^0: -326.36 ± 0.18 kJ/mol
  ΔS^0: −961.90 ± 0.08 J/mol/k
[3]; 310 K
  binding constants K: (1.83 ± 0.01) × 10^5 L·mol^−1
[3]; Stern–Volmer plots, 298–310 K
  quenching mechanism of α-glucosidase fluorescence: static quenching
[3]; T 298 K
  Ka (binding constant): 2.34 ± 0.04 ×10^5 L/mol
  Kq: 17.73 ± 0.15 ×10^12 L/mol/s
  Ksv: 17.73 ± 0.15 ×10^4 L/mol
  n (number of binding sites): 1.03
  ΔG^0: -30.63 ± 0.13 kJ/mol
[3]; T 304 K
  Ka (binding constant): 2.09 ± 0.02 ×10^5 L/mol
  Kq: 14.23 ± 0.09 ×10^12 L/mol/s
  Ksv: 14.23 ± 0.09 ×10^4 L/mol
  n (number of binding sites): 1.04
  ΔG^0: -30.96 ± 0.06 kJ/mol
[3]; T 310 K
  Ka (binding constant): 1.83 ± 0.01 ×10^5 L/mol
  Kq: 12.31 ± 0.08 ×10^12 L/mol/s
  Ksv: 12.31 ± 0.08 ×10^4 L/mol
  n (number of binding sites): 1.03
  ΔG^0: -31.23 ± 0.07 kJ/mol
[3]; Van’t Hoff, 298–310 K
  ΔH^0: -15.84 ± 0.05 kJ/mol
  ΔS^0: 49.67 ± 0.08 J/mol/k
[4]
  Random Coil: 21.40 ± 0.05%
  α-Helix: 20.76 ± 0.06%
  β-Antiparallel: 10.30 ± 0.03%
  β-Sheet: 11.20 ± 0.02%
  β-Turn: 36.33 ± 0.13%
[5]
  Random Coil: 26.76 ± 0.07%
  α-Helix: 19.75 ± 0.07%
  β-Antiparallel: 1.88 ± 0.01%
  β-Sheet: 13.68 ± 0.04%
  β-Turn: 37.94 ± 0.10%
